Source: PubChem BioAssay AID1918956 (Molecular Pharmacology Branch, DTP, NCI, 2023)
Several values for one entry are separate records, joined by “and”; a condition that tells them apart may be missing. Equal values may be shown once.

Tested on: OVCAR-5 complex spheroids, viability
Test: Anticancer human tumor OVCAR-5 cell line growth inhibition;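 note: spheroids exposed to agents for seven days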;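 for viability, T/C: 100% = DMSO vehicle control wells viability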
Conditions: for viability, T/C: stronger effect = lower value; active = viability on the fitted dose curve at most 10% of control; inactive = the rest
Method in brief: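 Multicellular complex spheroids of tumor cells with human endothelial cells (HUVEC) and mesenchymal stem cells; the LSD1 inhibitor iadademstat was combined with standard-of-care or investigational agents. Top concentration at or near clinical Cmax, half-log dilutions; final DMSO ≤0.25%.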

[1] = curve of first compound, second compound 0.1 µM
[2] = curve of first compound, second compound 0.316 µM
[3] = curve of first compound, second compound 1 µM
[4] = curve of first compound, second compound 3.16 µM
[5] = curve of first compound, second compound 10 µM
[6] = second compound 0.1 µM, first compound 0.00316 µM
[7] = second compound 0.1 µM, first compound 0.01 µM
[8] = second compound 0.1 µM, first compound 0.0316 µM
[9] = second compound 0.1 µM, first compound 0.1 µM
[10] = second compound 0.316 µM, first compound 0.00316 µM
[11] = second compound 0.316 µM, first compound 0.01 µM
[12] = second compound 0.316 µM, first compound 0.0316 µM
[13] = second compound 0.316 µM, first compound 0.1 µM
[14] = second compound 1 µM, first compound 0.00316 µM
[15] = second compound 1 µM, first compound 0.01 µM
[16] = second compound 1 µM, first compound 0.0316 µM
[17] = second compound 1 µM, first compound 0.1 µM
[18] = second compound 3.16 µM, first compound 0.00316 µM
[19] = second compound 3.16 µM, first compound 0.01 µM
[20] = second compound 3.16 µM, first compound 0.0316 µM
[21] = second compound 3.16 µM, first compound 0.1 µM
[22] = second compound 10 µM, first compound 0.00316 µM
[23] = second compound 10 µM, first compound 0.01 µM
[24] = second compound 10 µM, first compound 0.0316 µM
[25] = second compound 10 µM, first compound 0.1 µM
[26] = second compound 0.1 µM, first compound 0.000316 µM
[27] = second compound 0.1 µM, first compound 0.001 µM
[28] = second compound 0.316 µM, first compound 0.000316 µM
[29] = second compound 0.316 µM, first compound 0.001 µM
[30] = second compound 1 µM, first compound 0.000316 µM
[31] = second compound 1 µM, first compound 0.001 µM
[32] = second compound 3.16 µM, first compound 0.000316 µM
[33] = second compound 3.16 µM, first compound 0.001 µM
[34] = second compound 10 µM, first compound 0.000316 µM
[35] = second compound 10 µM, first compound 0.001 µM
[36] = second compound 0.1 µM, first compound 0.00949 µM
[37] = second compound 0.1 µM, first compound 0.03 µM
[38] = second compound 0.1 µM, first compound 0.0949 µM
[39] = second compound 0.1 µM, first compound 0.3 µM
[40] = second compound 0.1 µM, first compound 0.949 µM
[41] = second compound 0.1 µM, first compound 3 µM
[42] = second compound 0.316 µM, first compound 0.00949 µM
[43] = second compound 0.316 µM, first compound 0.03 µM
[44] = second compound 0.316 µM, first compound 0.0949 µM
[45] = second compound 0.316 µM, first compound 0.3 µM
[46] = second compound 0.316 µM, first compound 0.949 µM
[47] = second compound 0.316 µM, first compound 3 µM
[48] = second compound 1 µM, first compound 0.00949 µM
[49] = second compound 1 µM, first compound 0.03 µM
[50] = second compound 1 µM, first compound 0.0949 µM
[51] = second compound 1 µM, first compound 0.3 µM
[52] = second compound 1 µM, first compound 0.949 µM
[53] = second compound 1 µM, first compound 3 µM
[54] = second compound 3.16 µM, first compound 0.00949 µM
[55] = second compound 3.16 µM, first compound 0.03 µM
[56] = second compound 3.16 µM, first compound 0.0949 µM
[57] = second compound 3.16 µM, first compound 0.3 µM
[58] = second compound 3.16 µM, first compound 0.949 µM
[59] = second compound 3.16 µM, first compound 3 µM
[60] = second compound 10 µM, first compound 0.00949 µM
[61] = second compound 10 µM, first compound 0.03 µM
[62] = second compound 10 µM, first compound 0.0949 µM
[63] = second compound 10 µM, first compound 0.3 µM
[64] = second compound 10 µM, first compound 0.949 µM
[65] = second compound 10 µM, first compound 3 µM

CC1COCCN1c1cc(-c2ccnn2C)c2ccnc(-c3ccn[nH]3)c2n1 (stereo unspecified) + NC1CCC(NC2CC2c2ccccc2)CC1
47.7 nM: IC50 [5]
81.4 nM: IC50 [3]
inactive: viability, T/C [6] 111% | viability, T/C [7] 86.9% | viability, T/C [8] 60.4% | viability, T/C [9] 41.7% | viability, T/C (second compound 0.1 µM, first compound 0.316 µM) 37.2% | viability, T/C (second compound 0.1 µM, first compound 1 µM) 31.6% | viability, T/C [10] 110% | viability, T/C [11] 87.7% | viability, T/C [12] 61.2% | viability, T/C [13] 41% | viability, T/C (second compound 0.316 µM, first compound 0.316 µM) 37.4% | viability, T/C (second compound 0.316 µM, first compound 1 µM) 32% | viability, T/C [14] 104% | viability, T/C [15] 88.8% | viability, T/C [16] 65.2% | viability, T/C [17] 46.2% | viability, T/C (second compound 1 µM, first compound 0.316 µM) 39.4% | viability, T/C (second compound 1 µM, first compound 1 µM) 34.7% | viability, T/C [18] 83.8% | viability, T/C [19] 83.4% | viability, T/C [20] 60.1% | viability, T/C [21] 46.8% | viability, T/C (second compound 3.16 µM, first compound 0.316 µM) 40.7% | viability, T/C (second compound 3.16 µM, first compound 1 µM) 35.8% | viability, T/C [22] 79.1% | viability, T/C [23] 65.9% | viability, T/C [24] 55% | viability, T/C [25] 41.9% | viability, T/C (second compound 10 µM, first compound 0.316 µM) 37.8% | viability, T/C (second compound 10 µM, first compound 1 µM) 33.3%
61.9 nM: IC50 [2]
71.1 nM: IC50 [4]
61.8 nM: IC50 [1]

Cn1ncnc1C1c2n[nH]c(=O)c3cc(F)cc(c23)NC1c1ccc(F)cc1 (stereo unspecified) + NC1CCC(NC2CC2c2ccccc2)CC1
inactive: viability, T/C [26] 109% | viability, T/C [27] 95.3% | viability, T/C [6] 104% | viability, T/C [7] 104% | viability, T/C [8] 99.5% | viability, T/C [9] 100% | viability, T/C [28] 112% | viability, T/C [29] 98.7% | viability, T/C [10] 98.3% | viability, T/C [11] 96% | viability, T/C [12] 91.9% | viability, T/C [13] 104% | viability, T/C [30] 109% | viability, T/C [31] 96.2% | viability, T/C [14] 95.7% | viability, T/C [15] 99.3% | viability, T/C [16] 99% | viability, T/C [17] 94.3% | viability, T/C [32] 97.4% | viability, T/C [33] 95.9% | viability, T/C [18] 87.9% | viability, T/C [19] 91.3% | viability, T/C [20] 80.2% | viability, T/C [21] 91.5% | viability, T/C [34] 86% | viability, T/C [35] 107% | viability, T/C [22] 81.4% | viability, T/C [23] 79% | viability, T/C [24] 67.6% | viability, T/C [25] 81.3%
> 100 nM: IC50 [1] | IC50 [2] | IC50 [3] | IC50 [4] | IC50 [5]

Nc1ccccc1NC(=O)c1ccc(CNC(=O)OCc2cccnc2)cc1 + NC1CCC(NC2CC2c2ccccc2)CC1
inactive: viability, T/C [36] 97.2% | viability, T/C [37] 88.6% | viability, T/C [38] 69% | viability, T/C [39] 46.3% | viability, T/C [40] 23.8% | viability, T/C [42] 109% | viability, T/C [43] 90.8% | viability, T/C [44] 74.4% | viability, T/C [45] 45.5% | viability, T/C [46] 25% | viability, T/C [47] 10.4% | viability, T/C [48] 101% | viability, T/C [49] 97% | viability, T/C [50] 75.6% | viability, T/C [51] 48% | viability, T/C [52] 27.3% | viability, T/C [53] 10.3% | viability, T/C [54] 98.9% | viability, T/C [55] 78.5% | viability, T/C [56] 69.7% | viability, T/C [57] 47% | viability, T/C [58] 26.5% | viability, T/C [59] 10.8% | viability, T/C [60] 86.2% | viability, T/C [61] 71.6% | viability, T/C [62] 57.2% | viability, T/C [63] 42.4% | viability, T/C [64] 28.6% | viability, T/C [65] 9.2%
active: viability, T/C [41] 9.78%
258 nM: IC50 [2]
252 nM: IC50 [4]
170 nM: IC50 [5]
292 nM: IC50 [3]
246 nM: IC50 [1]

CC(C)c1c(-c2ccccc2)nc2c(C#N)c[nH]n2c1=O
> 10000 nM: IC50 (curve of compound)
inactive: viability, T/C (compound 0.0316 µM) 117% and 105% | viability, T/C (compound 0.1 µM) 108% and 94.7% | viability, T/C (compound 0.316 µM) 107% and 104% | viability, T/C (compound 1 µM) 107% and 102% | viability, T/C (compound 3.16 µM) 117% and 104% | viability, T/C (compound 10 µM) 104% and 100%

CC(C)CC(NC(=O)CNC(=O)c1cc(Cl)ccc1Cl)B1OC(=O)CC(CC(=O)O)(C(=O)O)O1 (stereo unspecified)
> 100 nM: IC50 (curve of compound)
inactive: viability, T/C (compound 0.000316 µM) 94.7% and 103% | viability, T/C (compound 0.001 µM) 95.6% and 99.8% | viability, T/C (compound 0.00316 µM) 92.1% and 95.9% | viability, T/C (compound 0.01 µM) 80.1% and 77.8% | viability, T/C (compound 0.0316 µM) 85% and 71.1% | viability, T/C (compound 0.1 µM) 70.6% and 57.8%

Cn1ncnc1C1c2n[nH]c(=O)c3cc(F)cc(c23)NC1c1ccc(F)cc1 (stereo unspecified) + NC1CC1c1ccc(-c2cccc(O)c2)cc1
inactive: viability, T/C [26] 101% | viability, T/C [27] 94.1% | viability, T/C [6] 85.4% | viability, T/C [7] 95.3% | viability, T/C [8] 83.2% | viability, T/C [9] 77.8% | viability, T/C [28] 94.6% | viability, T/C [29] 99.3% | viability, T/C [10] 95.1% | viability, T/C [11] 89.9% | viability, T/C [12] 93% | viability, T/C [13] 91.9% | viability, T/C [30] 81.3% | viability, T/C [31] 91.4% | viability, T/C [14] 89.7% | viability, T/C [15] 79.5% | viability, T/C [16] 92.8% | viability, T/C [17] 85.6% | viability, T/C [32] 88.4% | viability, T/C [33] 94.2% | viability, T/C [18] 88.1% | viability, T/C [19] 81.9% | viability, T/C [20] 74.3% | viability, T/C [21] 73.2% | viability, T/C [34] 82.6% | viability, T/C [35] 96.6% | viability, T/C [22] 85.5% | viability, T/C [23] 78.2% | viability, T/C [24] 72.6% | viability, T/C [25] 80.3%
> 100 nM: IC50 [1] | IC50 [2] | IC50 [3] | IC50 [4] | IC50 [5]

O=C(C=Cc1cccc(S(=O)(=O)Nc2ccccc2)c1)NO + NC1CCC(NC2CC2c2ccccc2)CC1
157 nM: IC50 [1]
inactive: viability, T/C [36] 98.5% | viability, T/C [37] 92.8% | viability, T/C [38] 62.8% | viability, T/C [39] 31.2% | viability, T/C [40] 15.3% | viability, T/C [42] 95.7% | viability, T/C [43] 89.1% | viability, T/C [44] 64.6% | viability, T/C [45] 35.5% | viability, T/C [46] 14.4% | viability, T/C [48] 106% | viability, T/C [49] 96% | viability, T/C [50] 69.7% | viability, T/C [51] 37.8% | viability, T/C [52] 14.3% | viability, T/C [54] 88% | viability, T/C [55] 86.1% | viability, T/C [56] 62.2% | viability, T/C [57] 35.3% | viability, T/C [58] 15.6% | viability, T/C [60] 89.5% | viability, T/C [61] 89.2% | viability, T/C [62] 60% | viability, T/C [63] 37.8% | viability, T/C [64] 16.7%
167 nM: IC50 [4]
active: viability, T/C [41] 4.12% | viability, T/C [47] 3.93% | viability, T/C [53] 6.24% | viability, T/C [59] 3.02% | viability, T/C [65] 2.99%
172 nM: IC50 [2]
192 nM: IC50 [3]
173 nM: IC50 [5]

Nc1ccn(C2OC(CO)C(O)C2(F)F)c(=O)n1 (stereo unspecified)
< 0.949 nM: IC50 (curve of compound)
inactive: viability, T/C (compound 0.000949 µM) 27.5% and 26.9% | viability, T/C (compound 0.003 µM) 29.6% and 29.3% | viability, T/C (compound 0.00949 µM) 29.2% and 28.1% | viability, T/C (compound 0.03 µM) 28.8% and 29.1% | viability, T/C (compound 0.0949 µM) 30.1% and 28.8% | viability, T/C (compound 0.3 µM) 29.1% and 28.3%
